Measured values published in article PMC9811652 (RSC Advances, 2023).

What was measured:
AChE = details: at 200 μM; cited from earlier work
BChE = details: at 200 μM; cited from earlier work
[1] = target: human serum acetylcholinesterase (Homo sapiens, UniProt P22303); test: biochemical
Chain of human serum acetylcholinesterase (P22303 32-574 limits assumed): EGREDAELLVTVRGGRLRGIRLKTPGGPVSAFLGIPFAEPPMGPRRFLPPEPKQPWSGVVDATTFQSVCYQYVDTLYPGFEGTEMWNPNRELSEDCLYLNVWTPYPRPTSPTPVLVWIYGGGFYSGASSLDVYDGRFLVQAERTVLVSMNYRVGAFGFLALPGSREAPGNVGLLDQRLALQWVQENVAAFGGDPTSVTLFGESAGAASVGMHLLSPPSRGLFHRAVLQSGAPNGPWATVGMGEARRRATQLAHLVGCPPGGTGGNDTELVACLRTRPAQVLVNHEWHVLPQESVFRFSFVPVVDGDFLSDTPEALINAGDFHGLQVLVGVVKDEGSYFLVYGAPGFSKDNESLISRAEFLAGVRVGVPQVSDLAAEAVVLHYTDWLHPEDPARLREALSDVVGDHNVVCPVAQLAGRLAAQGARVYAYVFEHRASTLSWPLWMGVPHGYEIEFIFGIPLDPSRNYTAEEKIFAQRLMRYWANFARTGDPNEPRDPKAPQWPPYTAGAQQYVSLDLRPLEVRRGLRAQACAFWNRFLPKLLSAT

COc1ccc2c3c1O[C@H]1C[C@@H](O)C=C[C@@]31CCN(C)C2 [Galantamine]
percentage inhibition, AChE (AChE): 78.76 ± 0.94% | percentage inhibition, BChE (BChE): 79.72 ± 0.33%

COc1c(OC)c(OC)c2c(-c3ccccc3)c(-c3ccccc3)[nH]c2c1CNc1ccccc1 [indole amine 23, 4,5,6-Trimethoxy-2,3-diphenyl-7-phenylaminomethyl-(1H)-indole]
IC50 [1]: 12.1 µM

COc1c(OC)c(OC)c2c(-c3ccccc3)c(-c3ccccc3)[nH]c2c1CNc1cccc([N+](=O)[O-])c1 [indole amine 24, 4,5,6-Trimethoxy-7-(3′-nitrophenylaminomethyl)-2,3-diphenyl-(1H)-indole]
IC50 [1]: 4.66 µM

COc1c(OC)c(OC)c2c(-c3ccccc3)c(-c3ccccc3)[nH]c2c1CNc1ccc([N+](=O)[O-])cc1 [indole amine 25, 4,5,6-Trimethoxy-7-(4′-nitrophenylaminomethyl)-2,3-diphenyl-(1H)-indole]
IC50 [1]: 4.28 µM
